Several values for one entry are separate records, joined by “and”; a condition that tells them apart may be missing. Equal entries are not always repeated.
Columns and labels:
human NaV1.7 = human NaV1.7 (Homo sapiens, UniProt Q15858); experiment: Manual whole cell patch clamp, human NaV1.7; format: cell-based
[1] = tested on: TTX-S sodium channels in rat DRG neurons; details: cited from earlier work
[2] = tested on: TTX-R sodium channels in rat DRG neurons; details: cited from earlier work
[3] = tested on: mechanically-induced C-fiber action potential firing; details: mouse skin-nerve preparation; cited from earlier work
human NaV1.4 [4] = biological target: T1, human NaV1.4 (Homo sapiens, UniProt P35499); experiment: PatchXpress (PX) automated electrophysiology, human NaV1.4; format: cell-based; details: for IC50: PX platform, at least ten cells, two to three data points per concentration
Description: (§1) Human NaV (hNaV) stably transfected cell lines in HEK293 or CHO backgrounds and cell culture methods were as previously described. hNaV1.1-hNaV1.7 cells were obtained from Eurofins Pharma Discovery Services (St. Charles, MO), and hNaV1.8 cells were generated in house. Whole cell patch clamp, PatchXpress, and IWQ electrophysiology voltage protocols as well as DRG neuron isolation were carried out as previously described. NaV1.7-NaV1.5 chimeras were generated and evaluated in BacMam transduced U2-OS cells on the IWQ platform as previously described.

human NaV1.5 [5] = biological target: T2, human NaV1.5 (Homo sapiens, UniProt Q14524); experiment: PatchXpress (PX) automated electrophysiology, human NaV1.5; format: cell-based; details: for IC50: PX platform, at least ten cells, two to three data points per concentration
[6] = tested on: capsaicin-induced action potential firing in rat DRG neurons; experiment: Multi-electrode array (MEA), capsaicin-induced action potential firing in rat DRG neurons; format: cell-based; details: cultured rat DRG neurons, 25 nM capsaicin (EC80) co-applied, 37°C, six replicate wells, read-out: IC50 for block of capsaicin-induced action potential firing
Description: Action potentials of cultured postnatal day 2 rat DRG neurons (Lonza, Walkersville, MD) were detected using the Maestro multi-well plate-based MEA system (Axion Biosystems, Atlanta, GA). A 48-well MEA plate containing 16 electrodes/well was pre-coated with 10μL 0.1% PEI (Sigma-Aldrich, St. Louis, MO) in borate buffer (50mM boric acid (Fisher Scientific, Waltham, MA), 12mM sodium tetraborate (Sigma-Aldrich), pH 8.4). The plate was incubated at 37°C for 2h, washed 3-times with 200μL sterile ddH2O and then air dried. Next, 10μL of 20μg/mL laminin (Sigma) in Primary Neural Basal Medium (PNBM) (Lonza) was spotted over the PEI-treated electrode surface and incubated for 2h at 37°C. Laminin was removed and immediately replaced with 10μL/well of 7x10^6 cells/mL rat DRGs in PNBM. […] Baseline spontaneous firing was recorded for approximately 1 min. Twenty-five μL of PNBM, 325nM capsaicin (MP Biomedicals, 25nM final, EC80) in PNBM, or 325nM capsaicin plus test compound was then added, and action potentials were continuously recorded for another 2 min with six replicate wells used per condition. MEA data were analyzed using Axion Integrated Studio AxIS2.1 (Axion Biosystems) and GraphPad Prism version 7.02 for Windows (GraphPad Software, La Jolla, CA). […]

[7] = tested on: mechanically-induced C-fiber action potential firing; design: species or system mouse
Description: Male C57BL/6 mice (Charles River Laboratories, San Diego, CA) between 2–3 months old (136 total mice used in study) were housed under standard temperature conditions (22–24°C) and illumination (12-hour light/dark cycle with lights on at 6:30 AM) with ad libitum access to fresh water and food. Mice were euthanized by CO2 followed by cervical dislocation. Experimental procedures for mouse skin-saphenous nerve studies were conducted as previously described with the use of 0.1% BSA (Acros) in the bath solution to decrease non-specific loss of peptide to chamber components [32]. Briefly, the saphenous nerve and skin from the left medial dorsum of the hind paw were dissected and mounted in a custom-made organ bath chamber. The proximal saphenous nerve end was passed through a hole into a separate recording chamber, desheathed and teased into fine fibers for extracellular recording. Mechanical responses were evoked by square force waves using a mechanical stimulator before and following peptide application to a small area of the corium (dermis) side of the skin in a custom-made stainless steel ring. Recording and analysis of C-fiber-mediated action potentials were performed in a blinded manner with respect to peptide treatment. […]

human NaV1.2 = human NaV1.2 (Homo sapiens, UniProt Q99250); experiment: Manual whole cell patch clamp, human NaV1.2; format: cell-based; details: 20% channel inactivation, n = 2–4 cells per data point
Description: as §1
(§2) Fig 5 Selectivity of AM-8145 for human NaV channels in heterologous cells and native NaV currents in mDRG neurons. A. Concentration response curves for TTX-S channels including NaV1.1-NaV1.4, NaV1.6-NaV1.7 and mDRG TTX-S. IC50 values with fold-selectivity compared to NaV1.7 are listed in parenthesis. AM-8145 was 30- to 120-fold selective for NaV1.7 over NaV1.1-NaV1.4 and NaV1.6. B. Concentration response curves for TTX-R channels including NaV1.5, NaV1.8 and mDRG TTX-R. AM-8145 was over 1,700-fold selective for NaV1.7 over NaV1.5, NaV1.8 and mDRG TTX-R. Curves in A and B were derived from whole cell patch clamp experiments. Data are presented as mean ± SEM with n = 2–4 cells per data point. C. Representative current traces for TTX-S channels before (black) and after (red) 10 nM AM-8145 addition. […]

human NaV1.4 [8] = biological target: T1, human NaV1.4; experiment: Manual whole cell patch clamp, human NaV1.4; format: cell-based; details: 20% channel inactivation, n = 2–4 cells per data point
Description: as §1, §2

human NaV1.5 [9] = biological target: T2, human NaV1.5; experiment: in vitro; format: cell-based
Description: as §1, §2

human NaV1.8 = biological target: T3, human NaV1.8 (Homo sapiens, UniProt Q9Y5Y9); experiment: Manual whole cell patch clamp, human NaV1.8; format: cell-based; details: 20% channel inactivation
T3 construct: expressed in transfected cells
Description: as §1, §2

[10] = biological target: T4, native TTX-R NaV1.8 channels in mouse DRG neurons (Mus musculus, UniProt Q6QIY3); experiment: Manual whole cell patch clamp, native TTX-R NaV channels in mouse DRG neurons; format: cell-based; details: 20% channel inactivation
T4 construct: endogenous in cells; host or cells: dissociated mouse DRG neurons
Description: as §1, §2

wild-type NaV1.7 = biological target: T5, wild-type NaV1.7 (Homo sapiens, UniProt Q15858); experiment: IWQ chimera mapping, wild-type NaV1.7; format: cell-based; details: IWQ platform; mean ± SEM
T5 construct: expressed in transfected cells; host or cells: BacMam transduced U2-OS cells
Description: as §1
(§3) Given the lack of robust bioactivity of AM-8145 on NaV1.5, we evaluated AM-8145 functional block on a battery of human NaV1.7-NaV1.5 chimeric channels, in which individual voltage sensor domains (transmembrane domains S1-S4 of domains I-IV) or the entire pore domain (transmembrane domains S5-S6 of domains I-IV) of NaV1.7 were inserted into the NaV1.5 backbone.
(§4) Fig 4 AM-8145 maps to the second voltage sensor domain on hNaV1.7. Potency of AM-8145 inhibition of wild-type NaV1.7, wild-type NaV1.5, or chimeric NaV1.7/NaV1.5 channels (red illustrates NaV1.7 sequence and gray illustrates NaV1.5 sequence) on the IWQ platform (mean ± SEM). D = “Domain”; S = “Sensor” corresponding to transmembrane segments 1–4; P = “Pore” corresponding to transmembrane segments 5–6. […]

[11] = tested on: NaV1.7/NaV1.5 chimera DIS (first NaV1.7 voltage-sensor domain in NaV1.5 backbone); experiment: IWQ chimera mapping, chimera DIS; format: cell-based, human; details: IWQ platform; BacMam transduced U2-OS cells
Description: as §1, §3, §4

[12] = tested on: NaV1.7/NaV1.5 chimera DIIIS (third NaV1.7 voltage-sensor domain in NaV1.5 backbone); experiment: IWQ chimera mapping, chimera DIIIS; format: cell-based, human; details: IWQ platform; BacMam transduced U2-OS cells
Description: as §1, §3, §4

[13] = tested on: NaV1.7/NaV1.5 chimera DIVS (fourth NaV1.7 voltage-sensor domain in NaV1.5 backbone); experiment: IWQ chimera mapping, chimera DIVS; format: cell-based, human; details: IWQ platform; BacMam transduced U2-OS cells
Description: as §1, §3, §4

wild-type NaV1.5 = wild-type NaV1.5 (Homo sapiens, UniProt Q14524); experiment: IWQ chimera mapping, wild-type NaV1.5; format: cell-based; design: expressed in transfected cells; host or cells: BacMam transduced U2-OS cells; details: IWQ platform
Description: as §1, §3, §4

Sequence of human NaV1.7 (Q15858 whole entry): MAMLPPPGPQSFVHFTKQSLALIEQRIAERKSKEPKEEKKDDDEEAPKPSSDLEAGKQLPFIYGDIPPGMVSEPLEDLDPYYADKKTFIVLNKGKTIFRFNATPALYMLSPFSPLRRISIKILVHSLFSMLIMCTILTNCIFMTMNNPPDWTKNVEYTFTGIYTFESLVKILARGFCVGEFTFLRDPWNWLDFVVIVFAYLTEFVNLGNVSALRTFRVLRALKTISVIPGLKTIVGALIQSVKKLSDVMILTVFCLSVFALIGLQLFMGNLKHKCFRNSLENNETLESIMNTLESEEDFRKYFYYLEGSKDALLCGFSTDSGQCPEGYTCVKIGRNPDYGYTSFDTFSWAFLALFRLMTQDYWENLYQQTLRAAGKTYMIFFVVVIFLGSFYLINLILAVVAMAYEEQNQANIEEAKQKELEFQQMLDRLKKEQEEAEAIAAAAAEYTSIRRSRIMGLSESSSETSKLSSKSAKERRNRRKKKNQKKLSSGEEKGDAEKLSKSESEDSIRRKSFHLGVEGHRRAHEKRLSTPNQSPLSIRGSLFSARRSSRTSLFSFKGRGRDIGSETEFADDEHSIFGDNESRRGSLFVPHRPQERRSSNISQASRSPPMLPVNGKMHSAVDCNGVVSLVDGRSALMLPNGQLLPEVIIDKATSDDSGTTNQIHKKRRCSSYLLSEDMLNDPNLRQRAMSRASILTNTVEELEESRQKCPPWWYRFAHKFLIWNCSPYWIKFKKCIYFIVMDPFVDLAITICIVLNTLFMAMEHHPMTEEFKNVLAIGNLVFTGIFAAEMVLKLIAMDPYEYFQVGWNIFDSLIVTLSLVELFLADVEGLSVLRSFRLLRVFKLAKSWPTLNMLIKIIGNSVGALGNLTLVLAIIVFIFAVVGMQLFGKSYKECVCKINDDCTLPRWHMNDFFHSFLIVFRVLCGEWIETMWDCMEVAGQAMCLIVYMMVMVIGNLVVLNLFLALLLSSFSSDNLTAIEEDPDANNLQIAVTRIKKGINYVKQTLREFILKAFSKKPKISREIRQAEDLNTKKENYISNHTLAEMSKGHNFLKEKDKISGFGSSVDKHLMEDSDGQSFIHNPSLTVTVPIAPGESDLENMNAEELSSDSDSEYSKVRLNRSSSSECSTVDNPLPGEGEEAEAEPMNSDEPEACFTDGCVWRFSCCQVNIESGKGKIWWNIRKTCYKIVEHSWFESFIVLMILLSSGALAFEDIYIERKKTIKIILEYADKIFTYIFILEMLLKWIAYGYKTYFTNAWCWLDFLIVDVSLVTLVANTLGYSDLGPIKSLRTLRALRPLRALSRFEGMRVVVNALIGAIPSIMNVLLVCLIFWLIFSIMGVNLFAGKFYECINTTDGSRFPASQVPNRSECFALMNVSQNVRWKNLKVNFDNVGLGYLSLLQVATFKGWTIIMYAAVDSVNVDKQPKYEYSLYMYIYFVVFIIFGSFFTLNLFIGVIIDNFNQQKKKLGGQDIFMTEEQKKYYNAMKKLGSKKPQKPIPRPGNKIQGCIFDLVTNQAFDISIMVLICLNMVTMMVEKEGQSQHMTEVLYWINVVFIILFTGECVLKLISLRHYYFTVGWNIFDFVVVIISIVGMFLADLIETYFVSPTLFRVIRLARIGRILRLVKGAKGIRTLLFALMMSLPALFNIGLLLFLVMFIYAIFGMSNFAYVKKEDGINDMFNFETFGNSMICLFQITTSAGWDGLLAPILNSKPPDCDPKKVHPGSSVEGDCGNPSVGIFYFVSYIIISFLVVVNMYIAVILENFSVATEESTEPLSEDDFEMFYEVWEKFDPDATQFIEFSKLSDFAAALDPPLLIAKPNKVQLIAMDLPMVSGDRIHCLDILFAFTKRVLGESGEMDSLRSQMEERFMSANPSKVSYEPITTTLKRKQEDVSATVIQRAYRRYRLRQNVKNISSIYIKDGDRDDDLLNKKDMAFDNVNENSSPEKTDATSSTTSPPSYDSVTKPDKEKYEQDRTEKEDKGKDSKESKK
T2 sequence (Q14524 whole entry): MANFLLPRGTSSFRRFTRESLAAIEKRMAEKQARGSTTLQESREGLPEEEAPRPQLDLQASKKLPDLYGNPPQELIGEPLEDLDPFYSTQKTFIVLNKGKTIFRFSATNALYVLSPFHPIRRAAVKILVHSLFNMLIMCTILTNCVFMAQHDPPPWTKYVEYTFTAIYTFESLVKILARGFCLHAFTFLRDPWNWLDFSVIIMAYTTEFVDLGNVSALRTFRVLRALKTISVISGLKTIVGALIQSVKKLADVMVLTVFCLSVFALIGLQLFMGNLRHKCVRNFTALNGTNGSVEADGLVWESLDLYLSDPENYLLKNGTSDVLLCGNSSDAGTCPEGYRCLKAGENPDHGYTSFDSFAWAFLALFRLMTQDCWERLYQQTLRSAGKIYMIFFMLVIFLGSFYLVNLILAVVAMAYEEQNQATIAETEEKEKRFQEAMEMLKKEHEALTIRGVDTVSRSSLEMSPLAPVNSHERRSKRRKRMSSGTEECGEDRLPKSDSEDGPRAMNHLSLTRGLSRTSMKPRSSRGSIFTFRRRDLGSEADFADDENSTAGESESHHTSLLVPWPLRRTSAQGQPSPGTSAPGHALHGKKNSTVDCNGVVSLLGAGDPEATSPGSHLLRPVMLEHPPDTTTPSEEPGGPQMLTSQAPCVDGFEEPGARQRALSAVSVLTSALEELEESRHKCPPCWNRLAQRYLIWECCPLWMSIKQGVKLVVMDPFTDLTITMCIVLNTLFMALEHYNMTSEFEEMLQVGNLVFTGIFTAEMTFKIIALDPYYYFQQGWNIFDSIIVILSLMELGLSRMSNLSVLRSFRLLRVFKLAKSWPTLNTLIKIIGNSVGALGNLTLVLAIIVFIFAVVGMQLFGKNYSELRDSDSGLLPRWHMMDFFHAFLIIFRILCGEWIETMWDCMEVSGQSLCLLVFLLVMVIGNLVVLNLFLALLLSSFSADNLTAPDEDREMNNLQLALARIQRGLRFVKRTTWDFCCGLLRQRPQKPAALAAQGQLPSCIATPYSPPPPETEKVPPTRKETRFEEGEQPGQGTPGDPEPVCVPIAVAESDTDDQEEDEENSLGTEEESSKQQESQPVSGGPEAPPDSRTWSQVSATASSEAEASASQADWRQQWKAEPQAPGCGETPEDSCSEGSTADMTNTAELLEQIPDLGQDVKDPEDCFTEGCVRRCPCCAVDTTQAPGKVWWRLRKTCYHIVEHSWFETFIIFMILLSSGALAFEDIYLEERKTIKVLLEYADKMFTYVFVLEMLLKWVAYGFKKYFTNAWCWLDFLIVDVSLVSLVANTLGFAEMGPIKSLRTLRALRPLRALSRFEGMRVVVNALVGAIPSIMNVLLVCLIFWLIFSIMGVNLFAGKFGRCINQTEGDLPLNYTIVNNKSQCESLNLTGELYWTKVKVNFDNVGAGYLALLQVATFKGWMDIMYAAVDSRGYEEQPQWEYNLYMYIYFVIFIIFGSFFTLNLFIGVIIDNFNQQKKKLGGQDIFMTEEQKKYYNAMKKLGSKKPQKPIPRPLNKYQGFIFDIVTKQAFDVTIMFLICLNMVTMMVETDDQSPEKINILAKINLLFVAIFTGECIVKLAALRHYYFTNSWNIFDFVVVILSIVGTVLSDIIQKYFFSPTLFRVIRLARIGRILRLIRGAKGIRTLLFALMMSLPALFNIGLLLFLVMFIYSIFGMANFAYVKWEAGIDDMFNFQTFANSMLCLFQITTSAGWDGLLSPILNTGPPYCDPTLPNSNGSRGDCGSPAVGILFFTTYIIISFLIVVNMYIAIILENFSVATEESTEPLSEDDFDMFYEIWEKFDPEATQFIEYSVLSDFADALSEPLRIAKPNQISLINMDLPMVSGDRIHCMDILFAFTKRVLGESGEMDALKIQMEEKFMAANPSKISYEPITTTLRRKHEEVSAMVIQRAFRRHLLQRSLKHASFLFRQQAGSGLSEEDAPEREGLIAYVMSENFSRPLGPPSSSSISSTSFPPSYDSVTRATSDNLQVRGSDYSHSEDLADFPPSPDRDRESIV
T5 sequence (Q15858 whole entry): as the sequence (Q15858 whole entry) above

JzTx-V(1–29) [reference compound]
hNaV1.7 current blocked (human NaV1.7): 83 ± 2% and 83 ± 6%
reversal of NaV1.7 block by high frequency strong depolarizations to +100 mV (human NaV1.7): partially reversed
IC50 [1]: 0.028 µM
IC50 [2]: 0.03 µM

COc1cc(-c2cc(F)cc(Cl)c2)c(F)cc1-n1c(=O)ccc2cc(S(=O)(=O)Nc3ccon3)ccc21 [AMG8379]
C-fiber inhibition [3]: 60%

C#CC[C@@H]1NC(=O)[C@@H]2CSSC[C@H](NC(=O)[C@H](Cc3ccc(O)cc3)NC(=O)[C@@H](N)CC#N)C(=O)N[C@@H](CCC(N)=O)C(=O)N[C@@H](CCCCN)C(=O)N[C@@H](Cc3c[nH]c4ccccc34)C(=O)N[C@@H](CCCC)C(=O)N[C@@H](Cc3c[nH]c4ccccc34)C(=O)N[C@@H]([C@@H](C)O)C(=O)N[C@H]3CSSC[C@H](NC(=O)[C@H](CCCNC(=N)N)NC(=O)[C@H](CC(C)C)NC(=O)CNC1=O)C(=O)N[C@@H](CCCCN)C(=O)N[C@@H](CC(C)C)C(=O)N[C@@H](Cc1c[nH]c4ccccc14)C(=O)N[C@H](C(=O)N[C@@H](CCCNC(=N)N)C(=O)N[C@@H](CCCCN)C(=O)N[C@@H](CCC(=O)O)C(=O)N[C@H](C(N)=O)[C@@H](C)CC)CSSC[C@H](NC(=O)[C@H](C)NC(=O)[C@H](CCCNC(=N)N)NC(=O)[C@H](CCCCN)NC(=O)[C@H](CO)NC(=O)[C@H](CC(=O)O)NC3=O)C(=O)N2 [AM-0422, CyA-[Nle6;Pra17;Glu28]JzTx-V(1–29)]
IC50 (human NaV1.4 [4]): 0.103 µM
IC50 (human NaV1.5 [5]; human): 0.966 µM
IC50 [6]: 0.0211 ± 0.0057 µM
IC50 [7]: 0.88 µM

C#CC[C@H](N)C(=O)N[C@@H](Cc1ccc(O)cc1)C(=O)N[C@H]1CSSC[C@@H]2NC(=O)[C@@H]3CSSC[C@@H](C(=O)N[C@@H](CCCNC(=N)N)C(=O)N[C@@H](CCCCN)C(=O)N[C@@H](CCC(=O)O)C(=O)N[C@H](C(N)=O)[C@@H](C)CC)NC(=O)[C@H](Cc4c[nH]c5ccccc45)NC(=O)[C@H](CC(C)C)NC(=O)[C@H](CCCCN)NC(=O)[C@H](CSSC[C@H](NC(=O)[C@H]([C@@H](C)O)NC(=O)[C@H](Cc4c[nH]c5ccccc45)NC(=O)[C@H](CCCC)NC(=O)[C@H](Cc4c[nH]c5ccccc45)NC(=O)[C@H](CCCCN)NC(=O)[C@H](CCC(N)=O)NC1=O)C(=O)N[C@@H](CC(=O)O)C(=O)N[C@@H](CO)C(=O)N[C@@H](CCCCN)C(=O)N[C@@H](CCCNC(=N)N)C(=O)N[C@@H](C)C(=O)N3)NC(=O)[C@H](CCCNC(=N)N)NC(=O)[C@H](CC(C)C)NC(=O)CNC(=O)[C@H](CCC(=O)O)NC2=O [AM-8145, Pra-[Nle6;Glu28]JzTx-V(1–29)]
selectivity for NaV1.7 over NaV1.4 (human NaV1.4 [4]; PX platform IC50 ratio): 300 fold
IC50 (human NaV1.4 [4]): 0.145 µM
IC50 (human NaV1.5 [5]): 3 µM
selectivity ratio (human NaV1.5 [5]; human, PX platform IC50 ratio, read-out: selectivity for NaV1.7 over NaV1.5): 6000
selectivity over human TTX-R channels (NaV1.5, NaV1.8) and native TTX-R channels in mouse DRG neurons (human NaV1.7; manual patch clamp IC50 ratios): over 1,000 fold
selectivity over other human TTX-S Nav channels (NaV1.1, NaV1.2, NaV1.3, NaV1.4, NaV1.6) (human NaV1.7; manual patch clamp IC50 ratios): 30- to 120 fold
IC50 (human NaV1.7; manual patch clamp, voltage protocol with 20% of channels inactivated): 0.00058 µM
IC50 (human NaV1.2): 0.0435 µM
IC50 (human NaV1.4 [8]): 0.071 µM
selectivity ratio (human NaV1.5 [9]; manual patch clamp IC50 ratio, read-out: fold-selectivity compared to NaV1.7, NaV1.5): > 1700
IC50 (human NaV1.5 [9]; manual patch clamp, 20% channel inactivation): > 1 µM
IC50 (human NaV1.8): > 1 µM
IC50 [10]: > 1 µM
IC50 (wild-type NaV1.7): 0.05 ± 0.01 µM
IC50 [11]: > 3 µM
IC50 [12]: > 3 µM
IC50 [13]: > 3 µM
IC50 (wild-type NaV1.5): > 3 µM

— article PMC5933747 (PLoS ONE, 2018)
